The subject of assay [1] is SP-induced emesis in the Least Shrew. Briefly: Antagonist interaction study against SP (50 mg/kg, i.p.)-induced emesis. The assay is classed as in vivo, Cryptotis parva. As to conditions: antagonist 10 mg/kg i.p., 30 min before SP 50 mg/kg i.p. An excerpt:
The present protocols were based upon preliminary studies as well as published findings in the Least Shrew. Darmani, 2001a; Darmani et al., 69 Pharmacol. Biochem. Behay. 239-49 (2001b). On the test day, the shrews were allowed to acclimate to the test laboratory for at least one hour prior to experimentation. To habituate the animals to the test environment, each shrew was randomly selected and transferred to a 20 cm×18 cm×21 cm clean clear plastic cage and offered four mealworms (Tenebrio sp.) 30 min prior to experimentation. […]
For the above drug interaction studies, different doses (i.p.) of either CP99,994 (0, 5, 10, and 20 mg/kg, n=10-14 shrews per group); L733060 (0, 5, 10, and 20 mg/kg, n=10-14 shrews per group), GR159897 (0 mg/kg and 20 mg/kg, n=8 per group) or SB218795 (0 or 20 mg/kg, n=7-8 per group) were administered to different groups of shrews 30 min prior to injection of an emetic dose (5 mg/kg, i.p.) of the NK1-receptor agonist GR73632. Emesis and scratchings were recorded for 30 min immediately following GR73632 administration as described above. […]
The data on the frequency of emesis and scratchings were analyzed by the Kruskal-Wallis (KW) nonparametric one-way analysis of variance (ANOVA) and post hoc analysis by Dunn's multiple comparisons test or Mann-Whitney test. […]

Assay [2] has as its system GR73632-induced emesis and scratching in the Least Shrew. Briefly: Antagonist interaction study against GR73632 (5 mg/kg, i.p.)-induced emesis and scratching. Type of assay: in vivo, Cryptotis parva. An excerpt: The present protocols were based upon preliminary studies as well as published findings in the Least Shrew. Darmani, 2001a; Darmani et al., 69 Pharmacol. Biochem. Behay. 239-49 (2001b). On the test day, the shrews were allowed to acclimate to the test laboratory for at least one hour prior to experimentation. To habituate the animals to the test environment, each shrew was randomly selected and transferred to a 20 cm×18 cm×21 cm clean clear plastic cage and offered four mealworms (Tenebrio sp.) 30 min prior to experimentation.
The latter doses of SP and GR73632 were chosen for subsequent antagonist interaction studies to pharmacologically characterize the role of NK1 receptors in the mediation of induced emesis by the use of: (1) two selective neurokinin NK1 receptor antagonists (CP99,994 and L733060) (Watson et al., 115 Br. J. Phramacol. 84-94 (1995); Guiard et al., 89 J. Neurochem. 54-63 (2004)); (2) an NK2 receptor antagonist (GR159897) (Beresford et al., 272 Eur. J. Pharmacol. 241-48 (1995)); and (3) an NK3 receptor antagonist (SB218795) (Salthun-Lassalle et al., 1995).
For the above drug interaction studies, different doses (i.p.) of either CP99,994 (0, 5, 10, and 20 mg/kg, n=10-14 shrews per group); L733060 (0, 5, 10, and 20 mg/kg, n=10-14 shrews per group), GR159897 (0 mg/kg and 20 mg/kg, n=8 per group) or SB218795 (0 or 20 mg/kg, n=7-8 per group) were administered to different groups of shrews 30 min prior to injection of an emetic dose (5 mg/kg, i.p.) of the NK1-receptor agonist GR73632. Emesis and scratchings were recorded for 30 min immediately following GR73632 administration as described above. The antiemetic effect of CP99,994 (0, 5, and 10 mg/kg, n=9-10 animals per group) was also investigated in a similar manner against SP (50 mg/kg, i.p.)-induced emesis.
The data on the frequency of emesis and scratchings were analyzed by the Kruskal-Wallis (KW) nonparametric one-way analysis of variance (ANOVA) and post hoc analysis by Dunn's multiple comparisons test or Mann-Whitney test. A P value of <0.05 was necessary to attain statistical significance. The incidence of emesis (number of shrews vomiting) was analyzed by the Fisher's exact test to determine whether there were differences between groups. When appropriate, pairwise comparisons were also made by this method. Two-way analysis of variance using the Kruskal-Wallis or Fisher's exact tests were initially utilized to respectively analyze the dose-response results of GR73632 on emesis and scratching behaviors, and percentage of shrews vomiting in saporin- and corresponding saline-pretreated control shrews. […] For some emesis data, the two-tailed Mann-Whitney test was used. The SP tissue concentration data were analyzed by a one-way ANOVA followed by Dunnett's t test as post hoc analysis. Fos-IR was quantified by counting immunopositive nuclei within each hemisection containing the region of interest (ROI). The number of nuclei was averaged across sections with the ROI for each animal, and the group mean and standard error obtained.

The values that follow come from patent US20110093959A1, “CRYPTOTIS PARVA SCREENING MODEL FOR ANTIEMETIC POTENTIAL” (priority 2008, published 2011).

Consider `COc1ccccc1CN[C@H]1CCCN[C@H]1c1ccccc1` (relative stereo) [CP99,994, (2S, 3S)-Cis-3 (2-methoxybenzylamino-2-phenylpiperidine)], for which the “attenuation of the frequency of SP-induced emesis” value in assay [1] is 84%. Also, the “shrews protected from SP-induced emesis” value in assay [1] is 70%. Moreover, the “reduction in frequency of GR73632-induced emesis” value was determined as 61% in assay [2] (antagonist 5 mg/kg i.p.), 87% in assay [2] (antagonist 10 mg/kg i.p.) and 97% in assay [2] (antagonist 20 mg/kg i.p.). The “reduction in percentage of shrews vomiting in response to GR73632” value amounted to 2.9% in assay [2] (antagonist 5 mg/kg i.p.), 60% in assay [2] (antagonist 10 mg/kg i.p.) and 73% in assay [2] (antagonist 20 mg/kg i.p.). In addition, the “reduction in the frequency of scratching” value in assay [2] (antagonist 5, 10, and 20 mg/kg, failed to attain significance) is recorded as “up to 49%”. Besides, the “onset of first emesis induced by GR73632” value in assay [2] (at highest tested effective antiemetic doses) was “only delayed the onset of first emesis”.
